ChEMBL document CHEMBL2401737 (J Med Chem, 2013)
≈ marks a conversion by molar mass, not a printed value.

Experiments:
[1] = Half life in human hepatocytes; assay type: ADME, cell-based, Hepatocyte
[2] = Half life in rat hepatocytes; assay type: ADME, cell-based, Hepatocyte
[3] = Half life in monkey S9 fraction; assay type: ADME, Macaca mulatta; conditions: rhesus monkey
[4] = Half life in human S9 fraction; assay type: ADME
[5] = Half life in rat S9 fraction; assay type: ADME
[6] = Half life in dog S9 fraction; assay type: ADME, Canis lupus familiaris
[7] = Solubility of the compound in simulated gastrointestinal fluid; assay type: physicochemical
[8] = Lipophilicity, log D of the compound at pH 7.4 by chromatographic analysis; assay type: physicochemical; conditions: buffer
[9] = Ratio of plasma concentration in rat to IC90 for pseudo Human immunodeficiency virus; assay type: ADME, cell-free
[10] = Apparent permeability in MDCK cells; assay type: ADME, cell-based, Canis lupus familiaris; conditions: dog
[11] = Plasma concentration in rat at 5 mg/kg, po after 24 hrs; assay type: ADME, organism-based; parameters: dose 5 mg/kg, route oral
[12] = Oral bioavailability in cynomolgus monkey at 5 mg/kg administered as capsule by LC-MS/MS analysis; assay type: ADME, organism-based, Macaca fascicularis; conditions: in vivo
[13] = Oral bioavailability in Beagle dog at 5 mg/kg administered as capsule by LC-MS/MS analysis; assay type: ADME, organism-based, Canis lupus familiaris; conditions: in vivo
[14] = Volume of distribution at steady state in cynomolgus monkey at 1 mg/kg, iv and 5 mg/kg, po administered as capsule by LC-MS/MS analysis; assay type: ADME, organism-based, Macaca fascicularis; conditions: in vivo, read-out: Vdss
[15] = Volume of distribution at steady state in Beagle dog at 1 mg/kg, iv and 5 mg/kg, po administered as capsule by LC-MS/MS analysis; assay type: ADME, organism-based, Canis lupus familiaris; conditions: in vivo, read-out: Vdss
[16] = Half life in cynomolgus monkey at 1 mg/kg, iv and 5 mg/kg, po administered as capsule by LC-MS/MS analysis; assay type: ADME, organism-based, Macaca fascicularis; conditions: in vivo
[17] = Half life in Beagle dog at 1 mg/kg, iv and 5 mg/kg, po administered as capsule by LC-MS/MS analysis; assay type: ADME, organism-based, Canis lupus familiaris; conditions: in vivo
[18] = Half life in Sprague-Dawley rat at 1 mg/kg, iv and 5 mg/kg, po administered as capsule by LC-MS/MS analysis; assay type: ADME, organism-based; conditions: in vivo
[19] = Clearance in Beagle dog at 1 mg/kg, iv and 5 mg/kg, po administered as capsule by LC-MS/MS analysis; assay type: ADME, organism-based, Canis lupus familiaris; conditions: in vivo
[20] = Clearance in cynomolgus monkey at 1 mg/kg, iv and 5 mg/kg, po administered as capsule by LC-MS/MS analysis; assay type: ADME, organism-based, Macaca fascicularis; conditions: in vivo
[21] = Fraction unbound in cynomolgus monkey plasma at 1 mg/kg, iv and 5 mg/kg, po administered as capsule by equilibrium dialysis technique; assay type: ADME, organism-based, Macaca fascicularis
[22] = Fraction unbound in Beagle dog plasma at 1 mg/kg, iv and 5 mg/kg, po administered as capsule by equilibrium dialysis technique; assay type: ADME, organism-based, Canis lupus familiaris
[23] = Fraction unbound in Sprague-Dawley rat plasma at 1 mg/kg, iv and 5 mg/kg, po administered as capsule by equilibrium dialysis technique; assay type: ADME, organism-based
[24] = Fraction unbound in human plasma; assay type: ADME, cell-free
[25] = tested on: Human immunodeficiency virus 1; test: Antiviral activity against Human immunodeficiency virus 1 3B infected in human MT4 cells after 4 to 5 days by bioluminescence assay in presence of human serum relative to control; assay type: functional
[26] = tested on: Human immunodeficiency virus 1; test: Antiviral activity against Human immunodeficiency virus 1 3B infected in human MT4 cells after 4 to 5 days by bioluminescence assay; assay type: functional, organism-based
[27] = tested on: Human immunodeficiency virus 1; test: Antiviral activity against Human immunodeficiency virus 1 Ba-L infected human PBMC after 7 days by [methyl-3H]dTTP incorporation assay; assay type: functional, organism-based; conditions: 168 h
[28] = molecular target: Human immunodeficiency virus type 1 integrase (Human immunodeficiency virus 1, UniProt Q7ZJM1); test: Inhibition of HIV-1 integrase strand transfer activity using [3H]-DNA as substrate preincubated for 60 mins prior to substrate addition measured after 25 to 45 mins
[29] = tested on: Human immunodeficiency virus; test: Ratio of IC50 for pseudo Human immunodeficiency virus to IC50 for pseudo Human immunodeficiency virus in presence of human serum albumin; assay type: functional
[30] = tested on: Human immunodeficiency virus; test: Antiviral activity against Human immunodeficiency virus harboring integrase Q148K mutant infected in human HeLa cells expressing CD4 after 2 days by beta galactosidase assay relative to wild type HIV; assay type: functional
[31] = tested on: Human immunodeficiency virus; test: Antiviral activity against pseudo Human immunodeficiency virus infected in HEK293T cells after 2 days in presence of human serum albumin; assay type: functional, organism-based; conditions: Human immunodeficiency virus 1, HEK-293T, 48 h
[32] = tested on: Human immunodeficiency virus; test: Antiviral activity against pseudo Human immunodeficiency virus infected in HEK293T cells after 2 days; assay type: functional, organism-based; conditions: Human immunodeficiency virus 1, HEK-293T, 48 h
[33] = Oral bioavailability in cynomolgus monkey at 5 mg/kg administered as suspension by LC-MS/MS analysis; assay type: ADME, organism-based, Macaca fascicularis; conditions: in vivo
[34] = Oral bioavailability in Beagle dog at 5 mg/kg administered as suspension by LC-MS/MS analysis; assay type: ADME, organism-based, Canis lupus familiaris; conditions: in vivo
[35] = Oral bioavailability in Sprague-Dawley rat at 5 mg/kg administered as suspension by LC-MS/MS analysis; assay type: ADME, organism-based; conditions: in vivo
[36] = Volume of distribution at steady state in cynomolgus monkey at 1 mg/kg, iv and 5 mg/kg, po administered as suspension by LC-MS/MS analysis; assay type: ADME, organism-based, Macaca fascicularis; conditions: in vivo, read-out: Vdss
[37] = Volume of distribution at steady state in Beagle dog at 1 mg/kg, iv and 5 mg/kg, po administered as suspension by LC-MS/MS analysis; assay type: ADME, organism-based, Canis lupus familiaris; conditions: in vivo, read-out: Vdss
[38] = Volume of distribution at steady state in Sprague-Dawley rat at 1 mg/kg, iv and 5 mg/kg, po administered as suspension by LC-MS/MS analysis; assay type: ADME, organism-based; conditions: in vivo, read-out: Vdss
[39] = Half life in Beagle dog at 1 mg/kg, iv and 5 mg/kg, po administered as suspension by LC-MS/MS analysis; assay type: ADME, organism-based, Canis lupus familiaris; conditions: in vivo
[40] = Half life in cynomolgus monkey at 1 mg/kg, iv and 5 mg/kg, po administered as suspension by LC-MS/MS analysis; assay type: ADME, organism-based, Macaca fascicularis; conditions: in vivo
[41] = Half life in Sprague-Dawley rat at 1 mg/kg, iv and 5 mg/kg, po administered as suspension by LC-MS/MS analysis; assay type: ADME, organism-based; conditions: in vivo
[42] = Clearance in Beagle dog at 1 mg/kg, iv and 5 mg/kg, po administered as suspension by LC-MS/MS analysis; assay type: ADME, organism-based, Canis lupus familiaris; conditions: in vivo
[43] = Clearance in cynomolgus monkey at 1 mg/kg, iv and 5 mg/kg, po administered as suspension by LC-MS/MS analysis; assay type: ADME, organism-based, Macaca fascicularis; conditions: in vivo
[44] = Clearance in Sprague-Dawley rat at 1 mg/kg, iv and 5 mg/kg, po administered as suspension by LC-MS/MS analysis; assay type: ADME, organism-based; conditions: in vivo
[45] = Fraction unbound in cynomolgus monkey plasma at 1 mg/kg, iv and 5 mg/kg, po administered as suspension by equilibrium dialysis technique; assay type: ADME, organism-based, Macaca fascicularis
[46] = Fraction unbound in Beagle dog plasma at 1 mg/kg, iv and 5 mg/kg, po administered as suspension by equilibrium dialysis technique; assay type: ADME, organism-based, Canis lupus familiaris
[47] = Fraction unbound in Sprague-Dawley rat plasma at 1 mg/kg, iv and 5 mg/kg, po administered as suspension by equilibrium dialysis technique; assay type: ADME, organism-based

Chain of Human immunodeficiency virus type 1 integrase (Q7ZJM1 whole entry): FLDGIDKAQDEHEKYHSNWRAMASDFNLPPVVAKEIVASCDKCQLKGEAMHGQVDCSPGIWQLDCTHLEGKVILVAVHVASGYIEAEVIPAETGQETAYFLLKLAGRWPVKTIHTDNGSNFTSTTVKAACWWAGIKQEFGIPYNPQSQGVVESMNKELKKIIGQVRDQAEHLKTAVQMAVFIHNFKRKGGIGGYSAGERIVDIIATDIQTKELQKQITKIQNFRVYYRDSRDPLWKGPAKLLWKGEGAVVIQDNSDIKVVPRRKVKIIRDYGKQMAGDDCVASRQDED

Question: Which results are given for C[C@H]1CO[C@@H]2Cn3cc(C(=O)NCc4ccc(F)cc4F)c(=O)c(O)c3C(=O)N12 [CABOTEGRAVIR]?
Answer: half-life [1]: > 3.67 h; half-life [2]: > 3.67 h; half-life [3]: > 3 h; half-life [4]: > 3 h; half-life [5]: > 3 h; half-life [6]: > 3 h; solubility [7]: 42 µg/mL (≈ 104 µM); chromatographic logD [8]: 3.49; Ratio [9]: 0.9; Papp [10]: 42.5 ×10⁻⁶ cm/s; concentration at 24 h [11]: 9590 ng/mL; bioavailability [12]: 6.2%; bioavailability [13]: 8%; Vd [14]: 0.09 L/kg; Vd [15]: 0.14 L/kg; half-life [16]: 4 h; half-life [17]: 5.7 h; half-life [18]: > 18 h; clearance [19]: 0.34 mL/min/kg; clearance [20]: 0.32 mL/min/kg; fraction unbound [21]: 0.003; fraction unbound [22]: 0.007; fraction unbound [23]: < 0.001; fraction unbound [24]: 0.004; fold change (FC) [25]: 408; IC50 [26]: 1.3 nM; IC50 [27]: 0.2 nM; IC50 [28]: 3 nM; Ratio IC50 [29]: 60; fold change (FC) [30]: 3.9; IC50 [31]: 30 nM; IC90 [31]: 0.0491 µg/mL; IC50 [32]: 0.5 nM

Question: Which results are given for C[C@@H]1CCO[C@H]2Cn3cc(C(=O)NCc4ccc(F)cc4F)c(=O)c([O-])c3C(=O)N12.[Na+] [DOLUTEGRAVIR SODIUM]?
Answer: half-life [1]: > 3.67 h; half-life [2]: > 3.67 h; half-life [3]: > 3 h; half-life [4]: > 3 h; half-life [5]: > 3 h; half-life [6]: > 3 h; solubility [7]: 130 µg/mL; chromatographic logD [8]: 3.67; Papp [10]: 58.5 ×10⁻⁶ cm/s; concentration at 24 h [11]: 908 ng/mL; bioavailability [33]: 25%; bioavailability [34]: 35%; bioavailability [35]: 34%; Vd [36]: 0.3 L/kg; Vd [37]: 0.3 L/kg; Vd [38]: 0.1 L/kg; half-life [39]: 5.2 h; half-life [40]: 6 h; half-life [41]: 6.2 h; clearance [42]: 2.2 mL/min/kg; clearance [43]: 2.1 mL/min/kg; clearance [44]: 0.23 mL/min/kg; fraction unbound [24]: 0.007; fraction unbound [45]: 0.009; fraction unbound [46]: 0.046; fraction unbound [47]: 0.001
